Measured values: patent US11154546B2, “Methods and compositions for treatment of mitochondrial toxicity” (Epirium Bio Inc., priority 2011, dated 2021)

Key:
[1] = tested on: mitochondrial permeability transition pores; conditions: cited from earlier work
isolated mitochondria = experiment: calcium induced mitochondrial damage (swelling, OD at 535 nm) in isolated heart mitochondria; assay type: biochemical, rat; conditions: 10^−14-10^−12 M; 33 μM CaCl2
Experimental: FIG. 6 depicts the protective effect of epicatechin on calcium induced mitochondrial damage (as measured by mitochondrial swelling). Swelling was evaluated by monitoring changes in optical density (OD, light absorbance) as follows: Hearts from male rats were excised and weighed. Left ventricles were homogenized (0.1 g/mL) in solution A (Sucrose 2M, EDTA 0.01M, Hepes 0.5M: pH=7.4), centrifuged 10 min (800×g), 4° C., the supernatant was centrifuged 10 min (8000×g), 4° C. and the pellet was re-suspended in solution B (Sucrose 2M, EDTA 0.01M, Tris 0.5M-H2PO4-50 mM: pH=7.4) and centrifuged 10 min (10000×g), 4° C. […] Pellet was re-suspended in 10 mL of solution C (Sucrose 2M, EDTA 0.01M, Tris 0.5M, H2PO4 50 mM, Succinate 1M: pH=7.4).

[2] = tested on: differentiated human skeletal muscle cells; experiment: mitochondrial respiration (oxygen consumption rate, Seahorse apparatus) in differentiated human skeletal muscle cells; assay type: cell-based; conditions: cells treated with 30 nM epicatechin for 48 h
Experimental: FIG. 1 depicts epicatechin stimulation on-demand mitochondrial respiration in human cells. […] Rates of respiration are reported as oxygen consumption rates (OCR) and were measured using a Seahorse apparatus.
FIG. 2 depicts blockade of epicatechin's stimulatory effect by an inhibitor of pyruvate transport.

[3] = fasting glucose levels in prednisolone-treated rats; assay type: in vivo, rat; conditions: prednisolone 10 mg/kg/day SC, 10 days
Experimental: Three groups of male rats were analyzed: 1) control group (saline solution, SC and saline solution by gavage BID); 2) prednisolone (10 mg/kg/day, SC and saline solution by gavage BID) and; 3) prednisolone (10 mg/kg/day, SC) plus epicatechin (Epi; 1 mg/kg/day by gavage BID). Blood samples were obtained from animals on each group after 12 hours fasting, Glucose levels were determined spectrophotometrically with an autokit glucose (Wako) kit.

[4] = tested on: mitochondrial oxidative phosphorylation (OXPHOS) related complexes; experiment: Western blot of OXPHOS complexes in skeletal muscle of prednisolone-treated rats; assay type: in vivo; conditions: prednisolone 10 mg/kg/day SC, 10 days, rat quadriceps
Experimental: FIG. 3 depicts the effects of the administration of 10 consecutive days of prednisolone (10 mg/kg/day, SC) on rat skeletal muscle mitochondrial oxidative phosphorylation (OXPHOS) related complexes levels as assessed by Western blots. Three groups of male rats were analyzed: 1) control group (saline solution, SC and saline solution by gavage BID); 2) prednisolone (10 mg/kg/day, SC and saline solution by gavage BID); and 3) prednisolone (10 mg/kg/day, SC) plus epicatechin (Epi; 1 mg/kg/day by gavage BID). Western blots of isolated skeletal muscle (quadriceps) from each group were probed with a cocktail of monoclonal antibodies to electron transport chain proteins (OXPHOS) (20 KDa subunit of complex I, 26 KDa subunit of complex IV, subunit core 2 of complex III, 30 KDa complex II and ATP synthase 54 Kda complex V). […]
Western blots were performed as follows: Approximately 50 mg of the heart and quadriceps femoris muscles were homogenized with a polytron in 500 μl lysis buffer (1% triton X-100, 20 mM Tris, 140 mM NaCl, 2 mM EDTA, and 0.1% SDS) with protease and phosphatase inhibitor cocktails (P2714 and P2850, Sigma-Aldrich, St. Louis, Mo.) supplemented with 0.15 mM PMSF, 5 mM Na3VO4 and 3 mM NaF. […] The total protein content was measured in the supernatant using the Bradford method. […] The band intensities were digitally quantified using ImageJ software.

[5] = oral glucose tolerance test in prednisolone-treated rats; assay type: in vivo, rat; conditions: prednisolone 10 mg/kg/day SC, 10 days; oral glucose 1.25 g/Kg, 0-4 hours
Experimental: Blood samples were obtained from animals on each group from 0-4 hours after an oral glucose charge (1.25 g/Kg). Glucose levels were determined spectrophotometrically with an autokit glucose (Wako) kit.

O=C(NCCO[N+](=O)[O-])c1cccnc1 [Nicorandil, N-[2-(Nitroxy)ethyl]-3-pyridinecarboxamide]
mitochondrial pore formation in response to ischemia [1]: prevent mitochondrial pore formation | calcium induced mitochondrial swelling (isolated mitochondria): blocks in a dose dependent manner

N#CC(=Cc1ccccc1)C(=O)O [a-cyannocinnamate]
blockade of epicatechin-stimulated maximal rates of respiration [2]: blocked

OCC1OC(O)CC(O)C1O (stereo not shown) [deoxyglucose]
blockade of epicatechin-stimulated maximal rates of respiration [2]: not by deoxyglucose

C[C@]12C=CC(=O)C=C1CC[C@@H]1[C@@H]2[C@@H](O)C[C@@]2(C)[C@H]1CC[C@]2(O)C(=O)CO [prednisolone]
glucose levels after 12 hours fasting [3]: significant hyperglycemia | skeletal muscle mitochondrial complex (I-V) levels [4]: reduced | oral glucose tolerance [5]: Abnormal glucose tolerance
